Source: US10092575B2, “Substituted thiophene- and furan-fused azolopyrimidine-5-(6H)-one compounds” (DART NEUROSCIENCE (CAYMAN) LTD., priority 2012, dated 2018)

These compounds were tested against human PDE1b enzyme (Homo sapiens (Human), UniProt Q01064) (assay: PDE1b inhibitory assay (IMAP TR-FRET)). Conditions: not given.
`COc1ccc(Cn2c(=O)n3ncnc3c3c(C)c(Br)sc32)cc1` [Example 76, 8-Bromo-6-(4-methoxybenzyl)-9-methylthieno[3,2-e][1,2,4]triazolo[1,5-c]pyrimidin-5(6H)-one] gave an EC50 of 100 to 1000 nM. Compound `Cc1cc2c(s1)n(Cc1cccc(Cl)c1)c(=O)n1ncnc21` [Example 16, 6-(3-Chlorobenzyl)-8-methylthieno[3,2-e][1,2,4]triazolo[1,5-c]pyrimidin-5(6H)-one] has an EC50 of 1000 to 10000 nM. Work on `Cc1csc2c1c1ncnn1c(=O)n2Cc1cccc(Cl)c1` [Example 11, 6-(3-Chlorobenzyl)-9-methylthieno[3,2-e][1,2,4]triazolo[1,5-c]pyrimidin-5(6H)-one] yielded an EC50 of 100 to 1000 nM. With `CC(C)CCc1cc2c(s1)n(Cc1ccc(Cl)cc1)c(=O)n1ncnc21` [Example 23, 6-(4-Chlorobenzyl)-8-isopentylthieno[3,2-e][1,2,4]triazolo[1,5-c]pyrimidin-5(6H)-one] the EC50 was 100 to 1000 nM. `O=c1n(Cc2ccc(Cl)cc2)c2sccc2c2ncnn12` [Example 5, 6-(4-Chlorobenzyl)thieno[3,2-e][1,2,4]triazolo[1,5-c]pyrimidin-5(6H)-one] showed an EC50 of 100 to 1000 nM. With `O=c1n(Cc2ccccc2)c2sc3c(c2c2ncnn12)CCCC3` [Example 84, 6-Benzyl-8,9,10,11-tetrahydrobenzo[4,5]thieno[3,2-e][1,2,4]triazolo[1,5-c]pyrimidin-5(6H)-one] the EC50 was 100 to 1000 nM. Compound `COc1ccc(Cn2c(=O)n3ncnc3c3c4c(sc32)CCNC4)cc1` [Example 184, 6-(4-Methoxybenzyl)-8,9,10,11-tetrahydropyrido[3′,4′:4,5]thieno[3,2-e][1,2,4]triazolo[1,5-c]pyrimidin-5(6H)-one] has an EC50 of 100 to 1000 nM. In the case of `CCN(Cc1cc2c(s1)n(Cc1ccc(OC)cc1)c(=O)n1ncnc21)C1CCOC(C)(C)C1` (stereo not drawn) [Example 196], the EC50 is reported as 1000 to 10000 nM. `COc1ccc(Cn2c(=O)n3ncnc3c3c4c(sc32)CN(C(=O)C2CCN(C)C2)CC4)cc1` (stereo not drawn) [Example 163, 6-(4-Methoxybenzyl)-9-(1-methylpyrrolidine-3-carbonyl)-8,9,10,11-tetrahydropyrido[4′,3′:4,5]thieno[3,2-e][1,2,4]triazolo[1,5-c]pyrimidin-5(6H)-one] gave an EC50 of 100 to 1000 nM. For `COc1ccc(Cn2c(=O)n3ncnc3c3cc(CN(C)C)sc32)cc1` [Example 30, 8-((Dimethylamino)methyl)-6-(4-methoxybenzyl)thieno[3,2-e][1,2,4]triazolo[1,5-c]pyrimidin-5(6H)-one], the EC50 was 100 to 1000 nM. `CCN(Cc1csc2c1c1ncnn1c(=O)n2Cc1ccc(OC)cc1)CC1CCOCC1` [Example 197, 9-((Ethyl((tetrahydro-2H-pyran-4-yl)methyl)amino)methyl)-6-(4-methoxybenzyl)thieno[3,2-e][1,2,4]triazolo[1,5-c]pyrimidin-5(6H)-one] was tested, and the EC50 was 100 to 1000 nM. In the case of `O=c1n(Cc2ccc(Cl)c(Cl)c2)c2sc3c(c2c2ncnn12)CCOC3` [Example 91, 6-(3,4-Dichlorobenzyl)-6,8,10,11-tetrahydro-5H-pyrano[4′,3′:4,5]thieno[3,2-e][1,2,4]triazolo[1,5-c]pyrimidin-5-one], the EC50 is reported as 100 to 1000 nM. For `Cc1sc2c(c1C)c1ncnn1c(=O)n2Cc1ccc(Cl)cc1` [Example 26, 6-(4-Chlorobenzyl)-8,9-dimethylthieno[3,2-e][1,2,4]triazolo[1,5-c]pyrimidin-5(6H)-one], the EC50 was 100 to 1000 nM. For `Cc1oc2c(c1C)c1ncnn1c(=O)n2Cc1ccc(Cl)cc1` [Example 79, 6-(4-Chlorobenzyl)-8,9-dimethylfuro[3,2-e][1,2,4]triazolo[1,5-c]pyrimidin-5(6H)-one], the EC50 was 100 to 1000 nM. Work on `COc1ccc(Cn2c(=O)n3ncnc3c3cc(CN4CCC5(C4)CC5(F)F)sc32)cc1` (stereo not drawn) [Example 192, 8-((1,1-Difluoro-5-azaspiro[2.4]heptan-5-yl)methyl)-6-(4-methoxybenzyl)thieno[3,2-e][1,2,4]triazolo[1,5-c]pyrimidin-5(6H)-one] yielded an EC50 of 100 to 1000 nM. `Cc1ccc(Cn2c(=O)n3ncnc3c3c4c(sc32)COCC4)cc1` [Example 88, 6-(4-Methylbenzyl)-6,8,10,11-tetrahydro-5H-pyrano[4′,3′:4,5]thieno[3,2-e][1,2,4]triazolo[1,5-c]pyrimidin-5-one] gave an EC50 of 100 to 1000 nM.

Same assay, conditions: negative log of half-maximal molar inhibitory concentration; 200 nM FAM-cAMP; reported as ranges
For `COc1ccc(Cn2c(=O)n3ncnc3c3c4c(sc32)CN(C(=O)C2CC2)CC4)cc1` [Example 159, 9-(Cyclopropanecarbonyl)-6-(4-methoxybenzyl)-8,9,10,11-tetrahydropyrido[4′,3′:4,5]thieno[3,2-e][1,2,4]triazolo[1,5-c]pyrimidin-5(6H)-one], the “PDE1b (pEC50)” value was over 7. With `COc1ccc(Cn2c(=O)n3ncnc3c3cc(CN4CC5(CCOCC5)C4)sc32)cc1` [Example 38, 8-(7-Oxa-2-azaspiro[3.5]nonan-2-ylmethyl)-6-(4-methoxybenzyl)thieno[3,2-e][1,2,4]triazolo[1,5-c]pyrimidin-5(6H)-one] the “PDE1b (pEC50)” value was over 7. `COc1ccc(Cn2c(=O)n3ncnc3c3c4c(sc32)CN(CC2CCCOC2)CC4(F)F)cc1` (stereo not drawn) [Example 136, 11,11-Difluoro-6-(4-methoxybenzyl)-9-((tetrahydro-2H-pyran-3-yl)methyl)-8,9,10,11-tetrahydropyrido[4′,3′:4,5]thieno[3,2-e][1,2,4]triazolo[1,5-c]pyrimidin-5(6H)-one] was tested, and the “PDE1b (pEC50)” value was over 7. For `COc1ccc(Cn2c(=O)n3ncnc3c3c(C)c(CN4CC5CCC(C4)O5)sc32)cc1` [Example 67, 8-(8-Oxa-3-azabicyclo[3.2.1]octan-3-ylmethyl)-6-(4-methoxybenzyl)-9-methylthieno[3,2-e][1,2,4]triazolo[1,5-c]pyrimidin-5(6H)-one], the “PDE1b (pEC50)” value was over 7. `COc1ccc(Cn2c(=O)n3ncnc3c3c(C)c(CN(C)C)sc32)cc1` [Example 45, 8-((Dimethylamino)methyl)-6-(4-methoxybenzyl)-9-methylthieno[3,2-e][1,2,4]triazolo[1,5-c]pyrimidin-5(6H)-one] was tested, and the “PDE1b (pEC50)” value was over 7. `COc1ccc(Cn2c(=O)n3ncnc3c3c(C)c(CN4CCCOCC4)sc32)cc1` [Example 61, 8-((1,4-Oxazepan-4-yl)methyl)-6-(4-methoxybenzyl)-9-methylthieno[3,2-e][1,2,4]triazolo[1,5-c]pyrimidin-5(6H)-one] was tested, and the “PDE1b (pEC50)” value was over 7. In the case of `CCC1CN(Cc2sc3c(c2C)c2ncnn2c(=O)n3Cc2ccc(OC)cc2)CCO1` (stereo not drawn) [Example 68, 8-((2-Ethylmorpholino)methyl)-6-(4-methoxybenzyl)-9-methylthieno[3,2-e][1,2,4]triazolo[1,5-c]pyrimidin-5(6H)-one], the “PDE1b (pEC50)” value is reported as over 7. With `COc1ccc(Cn2c(=O)n3ncnc3c3c4c(sc32)CN(Cc2ncccn2)CCC4)cc1` [Example 145, 6-(4-Methoxybenzyl)-9-(pyrimidin-2-ylmethyl)-6,8,9,10,11,12-hexahydro-5H-[1,2,4]triazolo[1″,5″:1′,6]pyrimido[5′,4′:4,5]thieno[2,3-c]azepin-5-one] the “PDE1b (pEC50)” value was over 7. With `COc1ccc(Cn2c(=O)n3ncnc3c3c(C)c(CN4CCN(C(C)C)CC4)sc32)cc1` [Example 64, 8-((4-Isopropylpiperazin-1-yl)methyl)-6-(4-methoxybenzyl)-9-methylthieno[3,2-e][1,2,4]triazolo[1,5-c]pyrimidin-5(6H)-one] the “PDE1b (pEC50)” value was over 7. With `COc1ccc(Cn2c(=O)n3ncnc3c3c4c(sc32)CN(C(=O)C2CCOC2)CC4)cc1` (stereo not drawn) [Example 170, 6-(4-Methoxybenzyl)-9-(tetrahydrofuran-3-carbonyl)-8,9,10,11-tetrahydropyrido[4′,3′:4,5]thieno[3,2-e][1,2,4]triazolo[1,5-c]pyrimidin-5(6H)-one] the “PDE1b (pEC50)” value was over 7. For `COc1ccc(Cn2c(=O)n3ncnc3c3c4c(sc32)COCC4)cc1` [Example 90, 6-(4-Methoxybenzyl)-6,8,10,11-tetrahydro-5H-pyrano[4′,3′:4,5]thieno[3,2-e][1,2,4]triazolo[1,5-c]pyrimidin-5-one], the “PDE1b (pEC50)” value was over 7. In the case of `COc1ccc(Cn2c(=O)n3ncnc3c3c4c(sc32)CN(Cc2nccn2C)CC4)cc1` [Example 122, 6-(4-Methoxybenzyl)-9-((1-methyl-1H-imidazol-2-yl)methyl)-8,9,10,11-tetrahydropyrido[4′,3′:4,5]thieno[3,2-e][1,2,4]triazolo[1,5-c]pyrimidin-5(6H)-one], the “PDE1b (pEC50)” value is reported as over 7. In the case of `COc1ccc(Cn2c(=O)n3ncnc3c3cc(-c4cc(C(F)(F)F)nn4C)sc32)cc1` [Example 41, 6-(4-Methoxybenzyl)-8-(1-methyl-3-(trifluoromethyl)-1H-pyrazol-5-yl)thieno[3,2-e][1,2,4]triazolo[1,5-c]pyrimidin-5(6H)-one], the “PDE1b (pEC50)” value is reported as over 7. In the case of `COc1ccc(Cn2c(=O)n3ncnc3c3c4c(sc32)CN(CCCSC)CC4)cc1` [Example 112, 6-(4-Methoxybenzyl)-9-(3-(methylthio)propyl)-8,9,10,11-tetrahydropyrido[4′,3′:4,5]thieno[3,2-e][1,2,4]triazolo[1,5-c]pyrimidin-5(6H)-one], the “PDE1b (pEC50)” value is reported as over 7. `COc1ccc(Cn2c(=O)n3ncnc3c3c(CN4CCC(Oc5ccccc5)C4)csc32)cc1` (stereo not drawn) [Example 189, 6-(4-Methoxybenzyl)-9-((3-phenoxypyrrolidin-1-yl)methyl)thieno[3,2-e][1,2,4]triazolo[1,5-c]pyrimidin-5(6H)-one] was tested, and the “PDE1b (pEC50)” value was over 7. For `COc1ccc(Cn2c(=O)n3ncnc3c3c4c(sc32)CN(Cc2ccccc2F)CC4)cc1` [Example 128, 9-(2-Fluorobenzyl)-6-(4-methoxybenzyl)-8,9,10,11-tetrahydropyrido[4′,3′:4,5]thieno[3,2-e][1,2,4]triazolo[1,5-c]pyrimidin-5(6H)-one], the “PDE1b (pEC50)” value was over 7. `COc1ccc(Cn2c(=O)n3ncnc3c3c4c(sc32)CN(C(=O)C2CC2)CC4)c(F)c1` [Example 168, 9-(Cyclopropanecarbonyl)-6-(2-fluoro-4-methoxybenzyl)-8,9,10,11-tetrahydropyrido[4′,3′:4,5]thieno[3,2-e][1,2,4]triazolo[1,5-c]pyrimidin-5(6H)-one] was tested, and the “PDE1b (pEC50)” value was over 7.
